Reference: patent US6416965B2, “Screening methods for presqualene disphosphate analogs” (Brigham and Women's Hospital, priority 1997, dated 2002)

Key:
[1] = tested on: electroporated neutrophils; experiment: Superoxide anion generation (NADPH oxidase activity) by electroporated neutrophils; format: cell-based, human
Description: To test the impact of compounds VI and VIII on neutrophil responses, the isolated lipids were introduced into neutrophils by electroporation prior to determining NADPH oxidase activity. […] Prenyl cysteine analogues can disrupt G-protein interaction with activated FMLP receptors (Scheer, A. & Gierschik, P. Biochemistry. 34,4952-4961 (1995), the teachings of which are incorporated herein by reference); therefore to determine compound VI's level of action, neutrophil superoxide anion generation was examined in the presence of phorbol 12-myristate 13-acetate (PMA), a potent trigger for O2- production which bypasses cell surface receptors to stimulate protein kinase C and subsequent NADPH assembly (see for example, Baggiolini, M., Boulay, F., Badwey, J. A. & Curnutte, J. T. FASEB J. 7, […] (1993); FIG. 3c).
After electroporation, cells in cytochrome c (0.7 mg/ml) were exposed (10 min, 37° C.) to PMA (10^−7 M), FMLP (10^−7 M) plus cytochalasin b (15 μg/ml), compound VI (1 μM) or compound VIII (1 μM) and supernatants monitored at 550 nm. Values represent the mean±SEM for n≧4.
(§1) Neutrophils (10^7/500 μl) were electroporated (1.65 kV/cm, 250 μF, Ω∞, Invitrogen Electroporator VI) at 0° C. in the presence of 10−^9-10−^6 M compound VI, VIII, FDP, FMP, squalene or vehicle (ethanol 0.2%). After electroporation, cells, in cytochrome c (0.7 mg/ml), were exposed (10 minutes, 37° C.) to either cytochalasin b (5 μg/mL) and FMLP (10^−7 M)(a) or PMA ((10^−7 M)(b) and supernatants monitored at […]. Electroporation gave a 49.9% reduction in FMLP-stimulated NADPH oxidase compared to naive cells. Values (FIGS. 4a and 4b) represent the mean±SEM for n≧3, d≧6. For adhesion (FIGS. 4c and 4d), changes in light transmittance were monitored (as in Fiore, S., Nicolaou, K. C., Caulfield, T., Kataoka, H. & Serhan, C. N. Biochem. J. 266, 25-31 (1990), the teachings of which are incorporated herein by reference) after addition of compounds VI, VIII (1.6 μM) or vehicle (0.5 min) and FMLP (0.5-5 μM) (2.5 min). Cell viability remained>99%. Values represent the mean±SEM for n=3, d=9. 1,4,5-inositol-triphosphate levels were determined (Amersham) in fresh PMN (10^7 cells) exposed (5 minutes, 37° C.) to compound VI, compound VIII (1 μM) or vehicle and stimulated with FMLP (10^−7M, 37° C.) (as in FIG. 4e). % Inhibition after 10 second exposure to FMLP is reported as mean±SEM for n=4, d≧8. *p <0.05 in Student's paired t-test compared with control, while “NS” indicates no significant change compared to incubations in the presence of vehicle (ethanol 0.2%) alone. Stereochemistry of PSDP and PSMP (FIG. 4f) were assigned by routine methods (Poulter, C. D. and Rilling, H. C. Acc. Chem. Res. 11, 307-313, (1978), the teachings of which are hereby incorporated by reference).

human neutrophils = experiment: FMLP-stimulated 1,4,5-inositol triphosphate (IP3) formation as surrogate for phospholipase C activity; format: cell-based; conditions: nM-μM amounts
Description: as §1
In addition to PLD, phospholipase C plays a critical role in intracellular signaling via the hydrolysis of inositol lipids to diacyl glyceride (DAG) and inositol trisphosphate (IP3) to effect a cascade of cellular events in response to pro-inflammatory stimuli. DAG activates protein kinases and is converted, in part, to phosphatidic acid by DAG kinase. Therefore, PLC together with DAG kinase provides a second major source of phosphatidic acid in human neutrophils (Agwu, DE, et al., Journal of Clinical Investigation 1991; 88:531). […] To this end, the impact of PSDP on fMLP-stimulated IP3 formation as a surrogate for phospholipase C activity was examined (FIG. 4e).
Amersham's D-myo-inositol 1,4,5-trisphosphate (IP3) [^3H] assay was used for this procedure (Amersham code TRK 1000, including product assay, the contents of which are incorporated herein by reference). The assay is based on procedures developed by Takata S. et al. J. Clin. Invest. 93:499 (1994) and Dillon S. B. et al. J. Biol. Chem. 262:11546 (1987), the contents of which are incorporated herein by reference in their entirety. [drawing 24] […]

neutrophils = experiment: Neutrophil homotypic adhesion (aggregation, light transmittance); format: cell-based, human
Description: as §1

neutrophil sonicates = experiment: Superoxide anion generation by neutrophil sonicates (post-nuclear supernatants, cytochrome c reduction); format: biochemical, human; conditions: arachidonic acid C20:4 75 μM, phosphatitic acid C10:0 100 μM
Description: Neutrophil lipids were saponified (10% KOH in methanol, 37° C., 30 min), extracted (Van Dessel, G. A. F., Lagrou, A. R. Hilderson, H. J. J. & Dierick, W. S. H. In: CRC Handbook of Chromatography (eds Mukherjee, K. D., Weber, N. & Sherma, J.) 321-337 (CRC Press, Boca Raton, 1993)) and separated by CC4 silica (1 gm/10^8 PMN) column chromatography as in FIG. 1f. […] After 2 min (37° C.) in a thermal-jacketed cuvette, β-NAPH (200 μM) was added to initiate reactions and absorbance (550 nm) was monitored at 15 second intervals. […]
To determine O2- production (FIGS. 1a-c), post-nuclear supernatants from neutrophils after sonication (0.1-0.5 mg protein/ml) (as generally described in Bromberg, Y. & Pick, E. Cell. Immunol. 88, 213-221 (1984), the teachings of which are incorporated herein by reference), 100 μM phosphatitic acid (C10:0, Avanti Polar Lipids, Inc.) and lipid extracts (0.1% ethanol) were added to cytochrome c (60 μM), sucrose (170 mM), EGTA (1 mM), FAD (10 μM), NaN3 (2 mM) and either superoxide dismutase (30 ug/ml) or H20 at 0° C. […] After 2 min (37° C.) in a thermal-jacketed cuvette, B-NADPH (200 μM) was added to initiate reactions and absorbance (550 nm) was monitored at 15 second intervals or following termination (10 minutes, 0° C.). […]

PMN = experiment: 32PO4 incorporation into non-saponifiable lipids of PMN labeled with γ-32PO4-ATP; format: cell-based, human; conditions: GM-CSF 25 ng/ml, 60 min, 37° C.; relative to cells without agonist
Description: To determine FMLP (10−^7 M)-induced changes in compound VI and VIII mass (inset), radioactive compounds were eluted and inorganic phosphorus levels were measured. In addition, PMN labeled with γ-^32PO4-ATP were incubated in the presence or absence of GM-CSF (25 ng/ml, 60 min, 37° C.)(b) with ^32P content quantitated as above. Values represent the mean±SEM for duplicate determinations from at least two separate PMN. The percent increase after exposure to GM-CSF is relative to parallel incubations with cells in the absence of agonist. **p<0.0005 and * p<0.03 by Student's paired t-test.

## CC(C)=CCC/C(C)=C/CC/C(C)=C/C1C(COP(=O)(O)O)C1(C)CC/C=C(\C)CCC=C(C)C (stereo in doubt) [Compound VIII, presqualene monophosphate]
[1]; PMA 10^-7 M, electroporated neutrophils
  influence on PMA-stimulated O2- production: not significantly influenced
[1]; nM-μM amounts
  inhibition of neutrophil superoxide anion generation: not
[1]; nM-μM quantities, electroporated neutrophils
  FMLP-triggered O2- production in the presence of the compound: unaltered
[1]; no agonist, 1 μM (FIG. 3c)
  stimulation of O2- production by the compound alone: neither compound VI nor VIII alone stimulated
Human neutrophils
  inhibition of 1,4,5-inositol-triphosphate formation: not
neutrophils; no agonist
  stimulation of adhesion by the compound alone: neither compound VI nor VIII alone stimulated
neutrophils; μM levels
  inhibition of FMLP-stimulated homotypic adhesion: not

## CCCCC/C=C\C/C=C\C/C=C\C/C=C\CCCC(=O)O [arachidonic acid]
Neutrophil sonicates
  rate of superoxide anion generation (O2- production): 1.38 nmoles/mg protein/min

## CCCCCCCCCC(=O)OC[C@H](COP(=O)(O)O)OC(=O)CCCCCCCCC [phosphatitic acid]
Neutrophil sonicates
  rate of superoxide anion generation (O2- production): 1.34 nmoles/mg protein/min

## GM-CSF: granulocyte/monocyte-colony stimulating factor, cytokine
PMN
  increase of 32PO4 incorporation into compound VI: 45.0%
  increase of 32PO4 incorporation into compound VIII: 84.1%
